According to ChEMBL document CHEMBL3271946, “Synthesis and adrenoreceptor blocking action of aziridinium ions derived from phenoxybenzamine and dibenamine” (J Med Chem, 1976):
Active and inactive are the calls of the source. The rule behind the calls is not given here.

Legend:
[1] = molecular target: T1, Adrenergic receptor alpha (Rattus norvegicus) (UniProt P15823+P23944+P43140+P22086+P19328+P22909); experiment: Antagonist activity at alpha-adrenergic receptor in blockade of norepinephrine-induced response in rat vas deferens after 3 mins; type: tissue-based
[2] = molecular target: T1, Adrenergic receptor alpha (Rattus norvegicus); experiment: Antagonist activity at alpha-adrenergic receptor in blockade of norepinephrine-induced response in rat vas deferens after 3 mins measured after compound washout; type: tissue-based
[3] = Half life in krebs solution assessed as hydrolysis at 0.003 M at 37 degC; type: physicochemical
[4] = test system: Vas deferens; experiment: Blockade of serotonin-induced response in rat vas deferens after 3 mins; type: functional, tissue-based
[5] = Half life in 0.025 M NaHCo3 solution assessed as compound cyclization at 5x10'-4 M; type: physicochemical
[6] = Half life in 80% aqueous Me2CO solution assessed as compound cyclization at 5x10'-4 M; type: physicochemical; details: 80% aqueous acetone (Me2CO) solution

Compound | inhibition [1] | inhibition [2] | half-life at 0.003 M [3] [min] | inhibition [4] | half-life at 500 µM [5] [min] | half-life at 500 µM [6] [min]
[O-][Cl+3]([O-])([O-])[O-].c1ccc(C[N+]2(Cc3ccccc3)CC2)cc1 | Active | Active | 14 | Active |  | 
CC(COc1ccccc1)N(CCCl)Cc1ccccc1.Cl (stereo not drawn) [PHENOXYBENZAMINE HYDROCHLORIDE] | Active | Active |  | Active | 2.3 | 0.61
CC(COc1ccccc1)[N+]1(Cc2ccccc2)CC1.[O-][Cl+3]([O-])([O-])[O-] (stereo not drawn) | Active | Active | 19 | Active |  | 
Cl.ClCCN(Cc1ccccc1)Cc1ccccc1 | Active | Active |  | Active | 6.1 | 1.6
